As a reminder, the IC50 is the midpoint of a concentration-inhibition curve. What is called IC90 is the point of the concentration-response curve where the effect stands at 90%.

For the assay, the system named is Plasmodium berghei. Nature of the assay: Luciferase/luciferin-expressing antifolate-resistant parasites were used to infect a culture of HepG2 cells that were pre-incubated with compounds. Infected hepatocytes emit light due to the luciferase reaction. Assay results are presented as the percent inhibition of light emission compared to control. […]. Type of assay: functional. The following applies: sporozoite; for IC90: read-out: LUCIFERASE INFECTION ASSAY - IC90.

The mark [1] stands for this setting: read-out: LUCIFERASE INFECTION ASSAY - IC50.

On to `CCn1c2ccccc2c2nnc(SCC(=O)c3cc(C)n(C)c3C)nc21`, for which the IC90 was over 10 µM. Besides, the IC50 (HEPG2TOX_HILL_SLOPE 1.47, HEPG2TOX_R_SQUARED 0.958, read-out: LUCIFERASE INFECTION ASSAY - IC50) was over 10 µM.
As to `O=C(CSc1nnnn1-c1ccccc1)N1N=C2/C(=C/c3ccc(F)cc3)CCCC2C1c1ccc(F)cc1` (stereo unspecified), the concentration for an effect of 90% (IC90) is over 10 µM. The IC50 (FFLUC_HILL_SLOPE 14.4, FFLUC_R_SQUARED 0.768, PBLUC_HILL_SLOPE 7.48, PBLUC_R_SQUARED 0.336, read-out: LUCIFERASE INFECTION ASSAY - IC50) worked out at 8.21 µM.
Consider `c1ccc(-c2cc(NCCCn3ccnc3)nc3ccccc23)cc1`, for which the IC90 is 8.58 µM. For the setting “PBLUC_HILL_SLOPE 4.01, PBLUC_R_SQUARED 0.225, read-out: LUCIFERASE INFECTION ASSAY - IC50”, the IC50 was determined as 4.96 µM.
Regarding `N#Cc1c(SCc2ccc(F)cc2)nc(N2CCOCC2)c2c1CCCC2`, the concentration for an effect of 90% (IC90) is over 8.61 µM. Besides, the IC50 under setting [1] was over 8.61 µM.
Regarding `COc1cc(-c2ccnc3n[nH]c(-c4ccc(N(C)C)cc4)c23)cc(OC)c1OC`, the IC90 was 3.63 µM. The IC50 (PBLUC_HILL_SLOPE 14.6, PBLUC_R_SQUARED 0.557, read-out: LUCIFERASE INFECTION ASSAY - IC50) stood at 3.12 µM.
For `N#Cc1c(SCC(=O)c2ccccc2)nc2c(c1-c1cccs1)CCCC2`, the IC90 is over 8.45 µM. Besides, where the note is “FFLUC_HILL_SLOPE 16.5, FFLUC_R_SQUARED 0.662, PBLUC_HILL_SLOPE 1.37, PBLUC_R_SQUARED 0.669, read-out: LUCIFERASE INFECTION ASSAY - IC50”, the IC50 came out at 3.67 µM.
Regarding `CC(C)N(C(C)C)S(=O)(=O)c1ccc(NNC(=O)Nc2ccccc2F)nc1`, the IC90 is over 10 µM. Besides, the IC50 (PBLUC_HILL_SLOPE 3.78, PBLUC_R_SQUARED 0.132, read-out: LUCIFERASE INFECTION ASSAY - IC50) worked out at 6.19 µM.
Consider `COc1cc2c(cc1NC(=O)C1CCCN(S(=O)(=O)c3ccc(F)cc3)C1)oc1ccccc12` (stereo unspecified), for which the IC90 was over 10 µM. Further, the IC50 under setting [1] is over 10 µM.
Regarding `Cc1sc2ncnc(NC(C)C(=O)Nc3ccc4c(c3)OCCCO4)c2c1C` (stereo unspecified), the IC90 is over 10 µM. Besides, the half-inhibitory concentration (IC50) under setting [1] stood at 8.08 µM.
`COCC(C)n1c(C)cc(C(=O)COC(=O)c2ccccc2SCC(=O)NC2CCCCCCC2)c1C` (stereo unspecified): the 90% effect concentration (IC90) came out at 5.25 µM. For the same compound, the IC50 (FFLUC_HILL_SLOPE 1.67, FFLUC_R_SQUARED 0.346, PBLUC_HILL_SLOPE 7.4, PBLUC_R_SQUARED 0.408, read-out: LUCIFERASE INFECTION ASSAY - IC50) worked out at 3.9 µM.
Take `CNc1ccccc1C(C)(C)c1cc(-c2ccc(C(C)C)cc2)n[nH]1`: the IC90 is over 10 µM. The IC50 (HEPG2TOX_HILL_SLOPE 0.485, HEPG2TOX_R_SQUARED 0.452, PBLUC_HILL_SLOPE 15.6, PBLUC_R_SQUARED 0.572, read-out: LUCIFERASE INFECTION ASSAY - IC50) was determined as 8.84 µM.
Turning to `CC1CCCC(NC(=O)CNc2cc(C(F)(F)F)ccc2Oc2ccc(Br)cc2)C1C` (stereo unspecified), the concentration for an effect of 90% (IC90) was over 10 µM. In addition, the IC50 under setting [1] was over 10 µM.
Take `Clc1cccc(-c2cnc3sc(NCCc4ccncc4)nn23)c1`: the IC90 is over 9.27 µM. The IC50 (HEPG2TOX_HILL_SLOPE 2.13, HEPG2TOX_R_SQUARED 0.945, PBLUC_HILL_SLOPE 2.85, PBLUC_R_SQUARED 0.464, read-out: LUCIFERASE INFECTION ASSAY - IC50) was found to be 5.6 µM.
As for `CN(C)CCCNc1nc(-c2cccs2)nc2sc3c(c12)CCCC3`, the IC90 came out at 4.04 µM. The half-maximal inhibitory concentration (IC50) (PBLUC_HILL_SLOPE 12.2, PBLUC_R_SQUARED 0.29, read-out: LUCIFERASE INFECTION ASSAY - IC50) was 3.37 µM.
On to `O=C(NC(c1ccccc1O)C(NC(=O)c1ccccc1)c1ccccc1O)c1ccccc1` (stereo unspecified), for which the IC90 is over 7.29 µM. Further, under setting [1], the IC50 is over 7.29 µM.
For `COc1ccccc1N1C(C)=CC(=C(C#N)c2nc3ccccc3s2)C=C1C`, the IC90 is over 10 µM. Besides, the IC50 (FFLUC_HILL_SLOPE 10.1, FFLUC_R_SQUARED 0.663, HEPG2TOX_HILL_SLOPE 9.46, HEPG2TOX_R_SQUARED 0.504, PBLUC_HILL_SLOPE 1.94, PBLUC_R_SQUARED 0.582, read-out: LUCIFERASE INFECTION ASSAY - IC50) came out at 3.83 µM.
As to `O=C(Nc1nccs1)c1cc(-c2ccccc2)c(C(F)(F)F)s1`, the 90% effect concentration (IC90) was 8.66 µM. In addition, for the setting “HEPG2TOX_HILL_SLOPE 4.77, HEPG2TOX_R_SQUARED 0.804, PBLUC_HILL_SLOPE 25.8, PBLUC_R_SQUARED 0.401, read-out: LUCIFERASE INFECTION ASSAY - IC50”, the IC50 amounted to 7.96 µM.
As for `c1ccc2c(Sc3ncnc4sccc34)cccc2c1`, the IC90 was over 11.2 µM. Moreover, the half-inhibitory concentration (IC50) (PBLUC_HILL_SLOPE 9.33, PBLUC_R_SQUARED 0.332, read-out: LUCIFERASE INFECTION ASSAY - IC50) was over 11.2 µM.
Regarding `COCCNC(=S)NNc1ccc2ccccc2c1`, the IC90 came to 1.19 µM. The IC50 (HEPG2TOX_HILL_SLOPE 2.26, HEPG2TOX_R_SQUARED 0.95, PBLUC_HILL_SLOPE 42.9, PBLUC_R_SQUARED 0.446, read-out: LUCIFERASE INFECTION ASSAY - IC50) is 1.13 µM.
Take `O=[N+]([O-])c1ccc(NC2C=CS(=O)(=O)C2)c(Cl)c1` (stereo unspecified): the 90% effect concentration (IC90) was over 10 µM. The IC50 (HEPG2TOX_HILL_SLOPE 13.7, HEPG2TOX_R_SQUARED 0.786, read-out: LUCIFERASE INFECTION ASSAY - IC50) is over 10 µM.
On to `CC(C)CN1CCC1(C(=O)Nc1ccncc1)c1ccccc1` (stereo unspecified), for which the IC90 was determined as 6.57 µM. For the setting “HEPG2TOX_HILL_SLOPE 0.888, HEPG2TOX_R_SQUARED 0.951, PBLUC_HILL_SLOPE 1.36, PBLUC_R_SQUARED 0.753, read-out: LUCIFERASE INFECTION ASSAY - IC50”, the IC50 amounted to 1.31 µM.
On to `Oc1ccc(-c2cnc3cnc(-c4ccc(Cl)cc4Cl)cn23)cc1`, for which the IC90 amounted to 3.44 µM. The IC50 (HEPG2TOX_HILL_SLOPE 1.37, HEPG2TOX_R_SQUARED 0.776, PBLUC_HILL_SLOPE 1.58, PBLUC_R_SQUARED 0.733, read-out: LUCIFERASE INFECTION ASSAY - IC50) is 0.858 µM.
As for `Cc1csc(C(C#N)C(=O)CSc2nnc(Nc3ccc(OC(F)(F)F)cc3)s2)n1` (stereo unspecified), the IC90 is over 10 µM. Further, the IC50 (PBLUC_HILL_SLOPE 2.13, PBLUC_R_SQUARED 0.0111, read-out: LUCIFERASE INFECTION ASSAY - IC50) is 7.36 µM.
Take `O=C1C=CC(=O)N1c1ccccc1Br`: the IC90 was over 13.1 µM. In addition, where the note is “PBLUC_HILL_SLOPE 18.8, PBLUC_R_SQUARED 0.535, read-out: LUCIFERASE INFECTION ASSAY - IC50”, the IC50 came to 12.7 µM.
`O=c1c(Cl)c(Cl)cnn1-c1ccc(S(=O)(=O)Oc2ccccc2F)cc1`: the IC90 stood at 8.08 µM. Also, for the setting “FFLUC_HILL_SLOPE 1.28, FFLUC_R_SQUARED 0.46, HEPG2TOX_HILL_SLOPE 12.5, HEPG2TOX_R_SQUARED 0.895, PBLUC_HILL_SLOPE 2.73, PBLUC_R_SQUARED 0.311, read-out: LUCIFERASE INFECTION ASSAY - IC50”, the IC50 amounted to 3.61 µM.
As for `CC(=O)NC(Cc1c[nH]c2ccccc12)C(=O)NNC(=O)c1ccccc1O` (stereo unspecified), the IC90 was over 10 µM. The IC50 under setting [1] is over 10 µM.
As to `Clc1nc2ccccc2cc1/C=N/Cc1ccc2c(c1)OCO2`, the 90% effect concentration (IC90) is over 10 µM. The IC50 under setting [1] is over 10 µM.
Turning to `CCOc1ccc2nc(N/N=C3/C(=O)N(c4ccccc4)N=C3C)sc2c1`, the IC90 turned out to be 9.42 µM. Also, the 50% inhibitory concentration (IC50) (PBLUC_HILL_SLOPE 22.7, PBLUC_R_SQUARED 0.625, read-out: LUCIFERASE INFECTION ASSAY - IC50) amounted to 8.55 µM.

(Values after ChEMBL document CHEMBL4483862, “Open-source discovery of chemical leads for next-generation chemoprotective antimalarials” (2018).)
